Measured values as given in patent US10568923B2, “Plant parts and extracts having anticoccidial activity” (priority 2012, dated 2020).
Entries after “also recorded” stand apart in the source; their conditions may differ.

How the values were obtained:
[1] = system: sporozoites of Eimeria tenella; test: In vitro anti-sporozoite activity by MTT reduction assay; assay type: cell-based; settings: peaks separated by semi-preparative HPLC; compared to crude powder in equivalent concentrations
Method: Further, an in vitro method based on 3-(4,5-Dimethyl-2-thiazolyl)-2,5-diphenyl-2H-tetrazolium bromide (MTT) reduction assay was developed to evaluate the anti-sporozoite activity of plant extracts as a measure of the viability of the sporozoites. The optimized method included the preparation, sterilization and purification of sporozoites, followed by incubation of sporozoite suspension (minimum of 10^5 cells/ml) with required concentration of plant extract. The plant samples were prepared by mixing crude powder into a known volume of distilled water to achieve the specific ppm, vortexed for 2 min and filtered through a 0.2μ syringe filter. Following 24 h of incubation with the plant extracts, the sporozoites were thoroughly washed and then MTT assay was performed. MTT-PMS solution (0.2 millimolar each) is incubated with the sporozoite suspension (at 1:10 ratio) for 2 h at 41° C. […] The purple dye formazan is dissolved in 200 ul DMSO and the absorbance is measured at 530 nm against a reference wavelength of 630 nm.
Q. infectoria gall nut crude powder was fractionated using different solvent by column chromatography. The sample from each of the fractions was evaluated for their anti-sporozoite activity.
These four compounds were separated by semi-preparative HPLC and anti-sporozoite activity was evaluated in comparison to the crude powder in equivalent concentrations.

[2] = system: mixed culture of oocysts of the species E. tenella, E. acervulina and E. maxima; test: In vivo challenge trial in broiler birds with mixed infection of coccidiosis (Examples 3, 10, 13); settings: Example 10, 11, 22 and 55 ppm
[3] = system: E. maxima (isolate ID NKL/11/Ac1); test: Example 14: in vivo anticoccidial trial in Cobb 400 broilers challenged with E. maxima; set-up: species or system Eimeria maxima; settings: day 6 post challenge
Description: The trial was designed with 11 treatment groups with 2 replicates per groups and 12 male birds per replicate. The groups included (1) uninfected control, (2) infected control, (3) positive control groups supplemented with Salinomycin (Coxistac) at the recommended dosage, (4) treatment group treated with 20 and 50 g/ton of pure THB, (5) encapsulated THB at 46.3, 92.6 and 185.2 g/ton of feed, and (6) microemulsion of THB at 138.9, 277.8 and 416.7 g/ton of feed. […] The parameters evaluated were lesion scoring on day 6 post challenge and oocysts shedding on day 7 post-challenge.
The trial was conducted at the R & D poultry farm facility of Kemin Animal Nutrition and Health (India), Gummidipundi. Straight run commercial hybrid broiler chickens, Gallus domesticus (Var. Vencobb 400) were used for the study. Day old male chicks were procured from Shanthi hatcheries, Coimbatore, India. Birds were weighed and examined for general health at receipt. The birds were individually identified by wing bands. The chicks were housed in mild steel cages which were cleaned, disinfected using Virkon S (Du Pont, India) and painted earlier. The birds were provided with ad libitum feed and water. No water sanitizers or antimicrobial compounds were used in the water or in the feed. The experimental design is detailed in Table 13. As this was a preliminary study to evaluate the effect of encapsulated and microemulsion of THB in controlling coccidiosis only 2 replicates were maintained.
The birds were fed with either feed containing no anticoccidial agent, THB, encapsulated THB, microemulsion of THB or Salinomycin (Coxistac, Pfizer, India) incorporated in the feed from day 1. THB was obtained from J P N Pharma, Mumbai, India
The oocysts of E. maxima (isolate ID NKL/11/Ac1) that were maintained at the Department of Veterinary Parasitology, Madras Veterinary College, Chennai were used for the induction of coccidiosis in the trial birds. The origin of the isolate was a broiler bird with clinical coccidiosis, and they were propagated in vivo to yield oocyst quantities sufficient for the study. […]

[4] = system: E. tenella (Houghton strain); test: Example 1 screening trial: Q. infectoria in controlling caecal coccidiosis in broiler chickens; assay type: in vivo, Eimeria tenella; settings: day 7 post infection; average of three replicates; Q. infectoria 100 g/ton feed, Coxistac 1000 g/ton
Method: The screening trial was conducted at a poultry farm facility located in Gummidipundi, India. Straight run commercial hybrid broiler chickens, Gallus domesticus (Var. Vencobb 400) were used for the study. Day old male chicks were procured, weighed individually, wing banded, and randomly segregated into groups. The experimental design is detailed in Table 1.
The treated birds were fed with plant extract incorporated in the feed from day 1 (Table 2). The crude powders of Q. infectoria gall nut were procured from Pooja herbs, Mumbai, India. […]
The excreta of the birds were monitored daily from the day 1 post infection to day 10 for their consistency, presence of blood, mucus, undigested feed, and orange color. […]
The mortality of the birds was recorded on a daily basis and post mortem was carried out to confirm the cause of death.
On day 5 and 7 post infection, 2 birds from each of the groups were sacrificed by cervical dislocation and the intestine was cut open. The caeca of the birds were scored for coccidiosis lesions. […]
Triplicate samples of the excreta of the birds were collected randomly from the tray kept below the cages and the oocyst per gram was evaluated.

[5] = Example 15: compatibility with Tiamulin in commercial broilers (Ross 308), 42 days; assay type: in vivo, Gallus domesticus (Var. Ross 308); settings: used in combination in feed of broilers
Method: Experimental facility and study design. An in vivo trial was conducted at Ramadootha poultry farm, Hyderabad, India. Straight run commercial hybrid broiler chickens, Gallus domesticus (Var. Ross 308) were used for the study. Day old male chicks were procured from Suguna Broilers, India. The birds were weighed individually, wing banded, and randomly segregated into groups. The experimental design is detailed in Table 18.
Details of treatment groups. The treated birds were fed with supplements incorporated in the feed from day 1 (Table 22).
Parameters analyzed. The parameters that were chosen for analyses were body weight, feed conversion ratio (FCR) on a weekly basis, mortality and leg weakness on daily basis.
Mean body weight. Birds from each of the groups were removed and weighed individually every week to calculate the weight gain. The cumulative average weight gain of the 8 replicates of each of the group was taken as the mean weight/week.
Feed Conversion ratio (FCR). The total feed consumption was monitored regularly and FCR was arrived at by dividing the feed consumed per bird by the final weight per bird.
Mortality. Mortality was recorded on daily basis and the total mortality was calculated and expressed as %. […]
Leg weakness. All birds were examined every day for the major clinical signs, leg weakness which was scored on a 0 to 4 scale. […]

Compound | Anti-sporozoite activity of the four major HPLC peaks (MTT) [1] | Dose response (lesion score, OPG) [2] | Lesion score for E. tenella, E. maxima and E. acervulina ([2]; day 5 post infection, vs infected control and Salinomycin) | Lesion score (mid-gut) ([3]; pure THB at 25 and 50 ppm) | Lesion score (mid-gut) ([3]; pure THB at 25 and 50 ppm, listed as THB) | Average Oocysts Per Gram Excreta [4] | Compatibility with Tiamulin [5] | Lesion score (mid-gut) ([3]; Coxistac at 500 g/ton of feed, vs infected control)
O=C(O)c1cc(O)c(O)c(O)c1 (single isomer, unassigned) [gallic acid, 3,4,5-trihydroxybenzoic acid] | best anti-sporozoite activity | Dose dependent response was observed with no significant difference between gallic acid at 22 and 55 ppm | significant reduction in the score for all the three tested species | comparable efficacy | significant improvement in lesions scores when compared to the positive control | – | – | –
CC[C@@H](C(=O)[C@@H](C)[C@@H](O)[C@H](C)[C@@H]1O[C@@H]([C@@H](CC)C(=O)O)CC[C@@H]1C)[C@H]1O[C@]2(C=C[C@@H](O)[C@]3(CC[C@@](C)([C@H]4CC[C@](O)(CC)[C@H](C)O4)O3)O2)[C@H](C)C[C@@H]1C [Salinomycin, reference compound] | – | – | – | – | – | did not show any indication of reduction of oocysts | indicates interaction | no significant reduction; also recorded: showed a reduction in lesion scores
